Earlier results, collected in PMC7904743, “WIDOCK: a reactive docking protocol for virtual screening of covalent inhibitors” (Journal of Computer-Aided Molecular Design, 2021).
Where two headings read alike, the source gives them in different places.

Assays:
NUDT7 = details: protein labeling at 200 μM; experimental actives if % labeling higher than 50%; cited from earlier work
OTUB2 = OTUB2 protein labeling; experimental actives if % labeling higher than 50%; cited from earlier work
[1] = thiol reactivity, cited from earlier work
[2] = natural log of average kinetic rate constant
[3] = natural log of average rate constant

Compound	NUDT7 % labeling (NUDT7)	OTUB2 % labeling (OTUB2)	ln(avg k) [1, 2]	ln(avg k) [1, 3]
Cc1ccc(CN(C)C(=O)CCl)cc1 [PCM-0103017, Cc1ccc(CN(C)C(=O)CCl)cc1]	9%	0%	-16.138	-16.138
CS(=O)(=O)c1ccc(F)c(NC(=O)CCl)c1 [PCM-0103018, CS(=O)(=O)c1ccc(F)c(NC(=O)CCl)c1]	0%	16%	-15.950	-15.950
CC1CCC(N(C)C(=O)CCl)CC1 (stereo not shown) [PCM-0103019, CC1CCC(N(C)C(=O)CCl)CC1]	0%	0%	-16.049	-16.049
O=C(CCl)NCC1Cc2ccccc2O1 (stereo not shown) [PCM-0103020, O=C(CCl)NCC1Cc2ccccc2O1]	0%	0%	-17.072	-17.072
O=C(CCl)N1CCN(c2ncc(Cl)cc2Cl)CC1 [PCM-0103022, O=C(CCl)N1CCN(c2ncc(Cl)cc2Cl)CC1]	22%	0%	-15.906	-15.906
CC(C)N(C(=O)CCl)C(C)C [PCM-0103023, CC(C)N(C(=O)CCl)C(C)C]	0%	0%	-17.155	-17.155
O=C(CCl)N1CCc2sccc2C1c1ccccc1 (stereo not shown) [PCM-0103024, O=C(CCl)N1CCc2sccc2C1c1ccccc1]	69%	0%	-15.442	-15.442
CC1CCCCC1N(C)C(=O)CCl (stereo not shown) [PCM-0103026, CC1CCCCC1N(C)C(=O)CCl]	12%	0%	-15.777	-15.777
COC(=O)c1ccc(C)c(NC(=O)CCl)c1 [PCM-0103027, COC(=O)c1ccc(C)c(NC(=O)CCl)c1]	5%	0%	-16.113	-16.113
Cc1ccc(NC(=O)CCl)c(F)c1 [PCM-0103028, Cc1ccc(NC(=O)CCl)c(F)c1]	0%	14%	-16.314	-16.314
CC(NC(=O)CCl)c1ccc2c(c1)OCO2 (stereo not shown) [PCM-0103030, CC(NC(=O)CCl)c1ccc2c(c1)OCO2]	12%	28%	-16.554	-16.554
Cc1ccc2nc(NC(=O)CCl)sc2c1 [PCM-0103031, Cc1ccc2nc(NC(=O)CCl)sc2c1]	88%	18%	-15.473	-15.473
O=C(CCl)N1CCN(c2cccc(Cl)c2)CC1 [PCM-0103032, O=C(CCl)N1CCN(c2cccc(Cl)c2)CC1]	22%	21%	-15.657	-15.657
N#Cc1cccc(NC(=O)CCl)c1 [PCM-0103033, N#Cc1cccc(NC(=O)CCl)c1]	0%	23%	-15.647	-15.647
CC(NC(=O)CCl)c1ccc(F)cc1F (stereo not shown) [PCM-0103035, CC(NC(=O)CCl)c1ccc(F)cc1F]	15%	34%	-15.881	-15.881
O=C(CCl)NC(=O)NCC(F)(F)F [PCM-0103037, O=C(CCl)NC(=O)NCC(F)(F)F]	0%	30%	-15.772	-15.772
O=C(CCl)N1CC=C(c2ccccc2)CC1 [PCM-0103038, O=C(CCl)N1CC=C(c2ccccc2)CC1]	0%	9%	-16.846	-16.846
O=C(CCl)Nc1ccc(F)cc1Cl [PCM-0103040, O=C(CCl)Nc1ccc(F)cc1Cl]	0%	0%	-16.348	-16.348
COc1ccc(C)cc1NC(=O)CCl [PCM-0103043, COc1ccc(C)cc1NC(=O)CCl]	6%	27%	-16.699	-16.699
O=C(CCl)NC1CCOCC1 [PCM-0103045, O=C(CCl)NC1CCOCC1]	0%	0%	-16.016	-16.016
CC(C)(C)n1ncc2c1CCCC2NC(=O)CCl (stereo not shown) [PCM-0103046, CC(C)(C)n1ncc2c1CCCC2NC(=O)CCl]	0%	36%	-16.467	-16.467
O=C(CCl)NCc1cccc(F)c1 [PCM-0103047, O=C(CCl)NCc1cccc(F)c1]	0%	43%	-16.636	-16.636

Compound	NUDT7 % labeling (NUDT7)	OTUB2 % labeling (OTUB2)	ln(avg k) [1, 2]	ln(avg k) [1, 3]
COC(=O)c1cccc(NC(=O)CCl)c1 [PCM-0103048, COC(=O)c1cccc(NC(=O)CCl)c1]	0%	87%	-15.795	-15.795
O=C(CCl)NCc1cc(Br)cs1 [PCM-0103050, O=C(CCl)NCc1cc(Br)cs1]	13%	84%	-16.422	-16.422
CCC1c2ccsc2CCN1C(=O)CCl (stereo not shown) [PCM-0103051, CCC1c2ccsc2CCN1C(=O)CCl]	30%	0%	-15.594	-15.594
Cc1nc(-c2ccc(C)c(NC(=O)CCl)c2)n[nH]1 [PCM-0103052, Cc1nc(-c2ccc(C)c(NC(=O)CCl)c2)n[nH]1]	12%	9%	-16.586	-16.586
O=C(CCl)NC1CCN(C2CC2)CC1 [PCM-0103055, O=C(CCl)NC1CCN(C2CC2)CC1]	0%	0%	-16.125	-16.125
Cc1cc(NC(=O)CCl)n(C(C)(C)C)n1 [PCM-0103057, Cc1cc(NC(=O)CCl)n(C(C)(C)C)n1]	0%	0%	-16.148	-16.148
CC1(C)CCCN1C(=O)CCl [PCM-0103060, CC1(C)CCCN1C(=O)CCl]	0%	0%	-15.914	-15.914
O=C(CCl)NNC(=O)C1CCC1 [PCM-0103061, O=C(CCl)NNC(=O)C1CCC1]	28%	14%	-15.962	-15.962
O=C(CCl)NC1CCSC1=O (stereo not shown) [PCM-0103062, O=C(CCl)NC1CCSC1=O]	0%	0%	-17.032	-17.032
O=C(CCl)N1CCN(Cc2ccccc2)CC1 [PCM-0103063, O=C(CCl)N1CCN(Cc2ccccc2)CC1]	7%	35%	-16.178	-16.178
O=C(CCl)N(C1CCCC1)C1CC1 [PCM-0103064, O=C(CCl)N(C1CCCC1)C1CC1]	0%	0%	-16.942	-16.942
O=C(CCl)NCC1CCC1 [PCM-0103065, O=C(CCl)NCC1CCC1]	0%	0%	-17.462	-17.462
Cc1cc(NC(=O)CCl)n(-c2ccccc2F)n1 [PCM-0103066, Cc1cc(NC(=O)CCl)n(-c2ccccc2F)n1]	0%	44%	-15.986	-15.986
O=C(CCl)N1CCC(c2nc3ccccc3s2)CC1 [PCM-0103068, O=C(CCl)N1CCC(c2nc3ccccc3s2)CC1]	65%	0%	-15.772	-15.772
COCC(=O)NNC(=O)CCl [PCM-0103070, COCC(=O)NNC(=O)CCl]	0%	0%	-17.475	-17.475
O=C(CCl)N1CCCc2cccc(F)c21 [PCM-0103071, O=C(CCl)N1CCCc2cccc(F)c21]	40%	0%	-16.007	-16.007
Cc1ccsc1CNC(=O)CCl [PCM-0103075, Cc1ccsc1CNC(=O)CCl]	0%	55%	-16.632	-16.632
O=C(CCl)Nc1ccon1 [PCM-0103077, O=C(CCl)Nc1ccon1]	0%	30%	-16.220	-16.220
O=C(CCl)NCc1ccc(Cl)s1 [PCM-0103080, O=C(CCl)NCc1ccc(Cl)s1]	0%	79%	-16.506	-16.506
CN(Cc1cc(Br)cs1)C(=O)CCl [PCM-0103081, CN(Cc1cc(Br)cs1)C(=O)CCl]	0%	0%	-15.601	-15.601
Cc1ccc(N(C(=O)CCl)C2C=CS(=O)(=O)C2)cc1C (stereo not shown) [PCM-0103082, Cc1ccc(N(C(=O)CCl)C2C=CS(=O)(=O)C2)cc1C]	15%	0%	-15.512	-15.512
